Reference: publication PMC4533973, “Synthesis and Evaluation of Chloramphenicol Homodimers: Molecular Target, Antimicrobial Activity, and Toxicity against Human Cells” (PLoS ONE, 2015)
Where two headings read alike, the source gives them in different places.

Columns and labels:
[1] = system: post-translocation ribosomal complex (complex C) derived from E. coli; experiment: Inhibition of peptide-bond formation (puromycin reaction, AcPhe-puromycin synthesis); assay type: biochemical; conditions: for Ki: 25°C, buffer A; for k off: nonlinear regression of k eq
Method: The inhibitory effect of CAM dimers on peptide-bond formation was studied using the puromycin reaction, a model reaction between puromycin and a post-translocation ribosomal complex (complex C) derived from E. coli. Since puromycin, a pseudo-substrate of PTase which binds to the A-site of the catalytic center, was present in excess, the reaction obeyed first-order kinetics. The first-order rate constant, k obs, at each concentration of puromycin was determined by fitting the x values into Eq 1, ln100/100−x=kobst (1) where x is the product AcPhe-puromycin, expressed as the percentage of complex C added in the reaction mixture, and t is the time of the reaction.
A representative time plot obtained at 400 μM puromycin, in the absence of inhibitor, is illustrated in Fig 3A (upper line) and, as expected, is characterized by linearity. However, when the reaction proceeded in the presence of a CAM dimer, e.g. compound 5, the time plots were characterized by two unique features that distinguish them from a typical kinetic behavior. […] Second, the slopes of both progress curves varied as a function of the inhibitor concentration (Fig 3A, four lower curves). […] These kinetic results are consistent with compound 5 operating through an induced fit mechanism (Fig 3C), in which the inhibitor first binds rapidly to complex C to form the encounter complex CI, which then undergoes a slow conformational change to produce a final, tighter complex C*I. Corroborative evidence for the consistency of this model is provided by the hyperbolic shape of the equilibration plots (k eq versus [I]), in which k eq represents the apparent rate constant for the attainment of equilibrium among C, CI, and C*I (Fig 3B). If one-step mechanism of inhibition was applicable (C + I ⇄ C*I), k eq should be a linear function of [I] [27]. […] Because the isomerization constant k on/k off was calculated to be 3.6, the inhibition process was finally associated with high overall inhibition of peptide-bond formation (Ki* = 0.3 μM; S1 Fig, panel C). In addition, the slow k off rate (0.64 min^-1) provided prolonged residence time for compound 5 at the ribosome, a behavior potentially predicting good efficacy in vivo [28].
The puromycin reaction, i.e. the reaction between complex C and excess puromycin (S), was carried out at 25°C in buffer A [100 mM Tris-HCl pH 7.2, 6 mM (CH3COO)2Mg, 100 mM NH4Cl and 6 mM 2-mercaptoethanol]. Under these conditions, the puromycin reaction obeys C + S ⇄KS CS→kcat C^′ + S pseudo-first-order kinetics and was analyzed as previously described.
In the presence of CAM dimers, biphasic semi-logarithmic time plots were obtained. The slope of the straight line through the origin was seen as the value of the apparent rate constant, k obs(early), at the early phase of the reaction. Similarly, the slope of the second straight line was taken as the apparent rate constant, k obs(late), at the late phase of the puromycin reaction.

E. coli (A2503C) = experiment: Antibacterial activity (growth inhibition, EC50); assay type: cell-based, Escherichia coli; conditions: for EC50: Escherichia coli
In short: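 LB, 37°C; inoculum from OD560 0.700 preculture; growth stopped when untreated control hit OD560 0.700. Readout: OD560 as % of 0.700. EC50 by nonlinear Hill (4PL) regression.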

P. aeruginosa (GRE5288) = experiment: Antibacterial activity (growth inhibition, EC50); assay type: cell-based, Pseudomonas aeruginosa; conditions: Pseudomonas aeruginosa
Source text: A.S. Mankin (University of Illinois). E. coli ΔtolC strain BL21 DE3 with impaired AcrAB-TolC, a proton-dependent MDR efflux pump causing multidrug resistance, was offered by Dr D.N. Wilson (University of Munich) and included in our study to test if this mechanism of resistance affects the efficacy of CAM dimers. […] I. Spiliopoulou (National Reference Laboratory for Staphylococci, School of Medicine, University of Patras, Greece). Finally, E. coli strain Rosetta(DE3)pLysS, containing a chloramphenicol resistant gene in the pLysS plasmid, was purchased from Novagen and was also included in our study. Briefly, S. aureus or E. coli cells (200 μl of a 0.700 OD560 preculture) containing wild-type or mutant ribosomes were added in 3.8 ml of LB (Luria-Bertani) medium and grown at 37°C in the presence or absence of CAM or CAM dimers until the optical density of the control culture (grown in the absence of drug) reached the value 0.700 at 560 nm. For E. faecium and P. aeruginosa cultures, TSB (Tryptic Soy Broth) medium was used, instead of LB medium, in order to achieve exponential doubling times between 25 and 35 minutes. From dose-response curves, the half-maximal effective concentration (EC50) for each compound and strain was estimated. EC50 represents the molar concentration of a compound that produces 50% of the maximal possible effect. The EC50 values were mathematically determined by non linear regression fitting of the observed culture optical-density values, expressed as the percentage of 0.700 (y), into Hill Equation, y=min+max−min/1+(x/EC50)^−n where min and max are the lowest and highest observed values of the culture optical density, respectively, x the concentration of the tested compound, and n the Hill coefficient that represents the largest absolute value of the curve slope. EC50 is equal to the x- value of the sigmoid’s midpoint. Fitting was performed using the Four Parameter Logistic Curve of the SigmaPlot Program Version 11.0 (Systat Software, Inc) for Exact Graphs and Data Analysis.

HS-Sultan cells = experiment: Toxicity assay in leukemic cell line (cell counting); assay type: cell-based, Human; conditions: daily cell counting
Method: (§1) Human leukemic cell lines, HS-Sultan (Burkitt’s lymphoma), Jurkat (T-cell acute lymphoblastic leukemia), and U937 (histiocytic lymphoma), were adjusted to 1×10^9 cells/l in RPMI-1640 medium supplemented with 10% fetal bovine serum and 1% penicillin/streptomycin. The cells were grown in triplicate in the absence (control cultures) or presence of CAM or CAM dimers for 4 days at 37°C, under a humidified 5% CO2 atmosphere. The medium was changed daily; CAM or CAM dimer addition was repeated after medium change. Aliquots were collected daily and counted in a CELL-DYN 3700 Hematology Analyzer. For cell necrosis and apoptosis assays, samples (10^6 cells) were collected and determined using the Annexin V-PE Apoptosis Detection Kit I (BD Pharmingen) for flow cytometry, according to the manufacturers’ instructions. Flow cytometry data were analyzed using the FlowJo flow cytometry analysis software. Necrotic and apoptotic cells were expressed as a percentage of total cells.
(§2) S4 Fig. Toxicity assays in Human leukemic cell lines. HS-Sultan, Jurkat, and U937 cell lines were adjusted to […] in RPMI-1640 medium containing 1% Penicillin/Streptomycin and 10% fetal bovine serum. […] Aliquots were collected daily and counted in a CELL-DYN 3700 Hematology Analyzer.

U937 cells = experiment: as above; assay type: cell-based, Human; conditions: daily cell counting
Method: as §1, §2

[2] = overall inhibition constant (CI + C*I)

`O=C(CCCCC(=O)N[C@H](CO)[C@H](O)c1ccc([N+](=O)[O-])cc1)N[C@H](CO)[C@H](O)c1ccc([N+](=O)[O-])cc1` [Compound 4, N^1,N^6-Bis((1R,2R)-1,3-dihydroxy-1-(4-nitrophenyl)propan-2-yl)adipamide] showed a Ki ([1]; encounter complex CI) of 6 ± 0.54 µM, a k off [1] of 0.0167 ± 0.00067 s⁻¹ and a Ki [1, 2] of 1.87 ± 0.15 µM. For the same molecule, the “activity compared to CAM” value ([1]; ranking by K i*) was “lower”, the “fold less efficient than compound 5” value ([1]; ranking by K i*) was 6 fold and the EC50 (E. coli (A2503C)) was over 100 µM. For the same molecule, the EC50 (P. aeruginosa (GRE5288)) was 72.6 ± 13.7 µM.
In the case of `O=C(N[C@H](CO)[C@H](O)c1ccc([N+](=O)[O-])cc1)c1ccc(C(=O)N[C@H](CO)[C@H](O)c2ccc([N+](=O)[O-])cc2)cc1` [Compound 5, N^1,N^4-Bis ((1R,2R)-1,3-dihydroxy-1-(4-nitrophenyl)propan-2-yl)-terephthalamide], the “apparent association rate constant, (k on + k off)/K i” value [1] is reported as 3×10^4 M^1s^-1, the “fold more potent than homodimers of CAM previously synthesized by Berkov-Zrihen et al.” value ([1]; direct comparison is not accurate) is reported as ~ 10 fold and the Ki ([1]; encounter complex CI) is reported as 1.4 ± 0.12 µM. For the same molecule, the k off [1] was 0.0105 ± 0.0005 s⁻¹, the Ki [1, 2] was 0.3 ± 0.03 µM and the “fold more potent than CAM” value ([1]; ranking by K i*) was 3 fold. For the same molecule, the “fold more active than CAM in inhibiting the A2503C mutant” value (E. coli (A2503C)) was “approximately 2 fold”, the EC50 (E. coli (A2503C)) was 16.4 ± 1.5 µM and the EC50 (P. aeruginosa (GRE5288); TSB medium, clinical isolate with MexAB-OprM and MexXY efflux, read-out: EC50) was 15.2 ± 1.3 µM. For the same molecule, the “sensitivity of HS-Sultan cells” value (HS-Sultan cells) was “insensitive” and the “sensitivity of U937 cells” value (U937 cells) was “insensitive”.
